Publication PMC4595849, “Rational Design of Benzylidenehydrazinyl-Substituted Thiazole Derivatives as Potent Inhibitors of Human Dihydroorotate Dehydrogenase with in Vivo Anti-arthritic Activity” (Scientific Reports, 2015)
Where “and” joins values, the source holds several entries; their conditions need not be identical. Equal values may be shown once. Read-outs that look alike come from different tables or passages of the source.

What was measured:
hDHODH (Met30-Arg396) [1] = target: T1, hDHODH (Met30-Arg396) (Homo sapiens, UniProt Q02127); design: method as in PMID 22984987; details: from earlier virtual screen; cited from earlier work
T1 construct: hDHODH (Met30-Arg396) was expressed and purified in the same manner as described in our recently published work; made in house
T1 sequence (Q02127 29-395): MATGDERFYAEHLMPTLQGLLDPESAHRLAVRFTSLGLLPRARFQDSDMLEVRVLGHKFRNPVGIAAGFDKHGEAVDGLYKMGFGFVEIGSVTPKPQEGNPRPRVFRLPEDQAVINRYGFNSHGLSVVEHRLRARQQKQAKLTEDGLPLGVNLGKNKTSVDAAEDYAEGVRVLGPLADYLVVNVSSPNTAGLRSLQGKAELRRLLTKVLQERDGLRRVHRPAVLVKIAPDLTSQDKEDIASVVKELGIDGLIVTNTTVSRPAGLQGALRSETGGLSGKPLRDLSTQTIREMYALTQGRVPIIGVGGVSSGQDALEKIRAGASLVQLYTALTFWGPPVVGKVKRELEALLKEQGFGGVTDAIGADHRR

hDHODH (Met30-Arg396) [2] = target: T1, hDHODH (Met30-Arg396); assay: hDHODH enzyme inhibition, DCIP assay; format: biochemical; details: for LLE: LLE = pIC50 − clogP; for IC50: hDHODH, mean ± SD of three independent experiments, IC50 measured if inhibition rate at 10 μM was larger than 50%; for fold decrease in potency compared with 19: hDHODH IC50 relative to 19
Source text: The plasmid coding for human DHODH was kindly provided by Prof. Jon Clardy (Harvard Medical School)[7]. hDHODH (Met30-Arg396) was expressed and purified in the same manner as described in our recently published work[38]. We determined the effect of benzylidenehydrazinyl-substituted thiazole derivatives to inhibit hDHODH by using a DCIP assay method.

[3] = single dose pharmacokinetic study in rats (IV and PO); details: male, Sprague-Dawley, rat, plasma, 1 mg/kg
Description: (§1) Male Sprague-Dawley rats were raised according to the Guide for the Care and Use of Laboratory Animals. […] Heparin sodium was applied as the anticoagulant of the blood samples. Based on the LC/MS/MS quantitative data, pharmacokinetic parameters were analyzed using WinNonlin5.2 with noncompartment model.

[4] = tested on: Wistar rats with collagen-induced arthritis (CIA); assay: collagen-induced arthritis (CIA) rat efficacy study; format: in vivo; details: for arthritis score: day 28, maximum score 8; for influence on body weight: i.p. daily for 28 days, versus model group
Description: Compound 19 and methotrexate were injected intraperitoneally once per day for 28 days into the Wistar rats with collagen-induced arthritis (CIA). The swelling scores of the arthritis and morphological observations of the rats’ joint tissues were employed to examine the anti-arthritic effect of compound 19 (Fig. 5). With the onset of arthritis, the swelling scores were an indication of the disease states. The maximum score was 8, which is the sum of the scores from both hind paws of each rat and indicates a severe arthritis state. During the experiment, the control rats had normal eating patterns, shiny hair and continuously increasing body weight.
Adult male Wistar rats (120–140 g) were purchased from Shanghai SLRC Laboratory animal company and housed in standard pathogen-free cages. The environment was climate-controlled (20–25 °C, 50–60% relative humidity) with a 12-hour light and 12-hour dark cycle as described previously. Sterilized food and water were provided naturally. All procedures involving animals conform to the Chinese government guidelines for animal experiments, and were conducted with approval of the Institutional Animal Care and Use Committee of East China University of Science & Technology. Bovine type II collagen (CII, Chondrex, USA) was emulsified in the same manner as that conducted previously to get the CIA model. Specifically, 49 rats were randomly assigned into five groups: normal control (solvent, i.p., n = 6), CIA model (solvent, i.p., n = 11), Methotrexate-treated (0.3 mg/kg, i.p., n = 10), compound 19-treated (5 mg/kg, i.p., n = 11) and compound 19-treated (30 mg/kg, i.p., n = 11) groups. Methotrexate, reported to has a therapeutic effect on rheumatoid arthritis, was used as the positive control in this study. The main workflows of this experiment were consistent with that reported recently. During the 28 days of the experiment, compound 19 (5 mg/kg and 30 mg/kg) and Methotrexate (0.3 mg/kg) were injected intraperitoneally once every day. At the same time, the normal control group and model group were administered the same amount of solution. The solvent of 19 was made up of 5% DMSO, 45% saline and 50% PEG400.
In this study, the clinical-mimic arthritis was observed and the severity was assessed by the same criteria as that applied in reference 65: 0, normal, without any swelling; 1, mild swelling; 2, swelling; 3, significant swelling; 4, severe swelling. The maximum score was 8, which was the sum of the scores from both hind paws of each rat. When arthritic signs appeared, the incidence and severity of the arthritis in rats with different treatments were evaluated via arthritis scores recorded every 2 days under blinded conditions. Measurement of body weight was taken every 3 days. All Wistar rats were killed after 28 day’s trails. Pathological detections against the whole knee joints of the rats were conducted using the same method as described previously. Mean ± standard deviation […] was applied to present the data in this study. SPSS was used to evaluate the statistical significance of differences among the groups. P ≤ 0.05 was the threshold to be statistically significant.

in vivo = details: male, Sprague-Dawley, rat, po, 10 mg/kg
Description: as §1

[5] = design: method as in PMID 16645972; details: in patients; cited from earlier work

LLE (hDHODH (Met30-Arg396) [2]) | IC50 (hDHODH (Met30-Arg396) [2]) | inhibition of hDHODH (in words) (hDHODH (Met30-Arg396) [2]) | SMILES | further results
0.76 | 1390 ± 38 nM | moderate inhibition | Oc1ccccc1/C=N/Nc1nc(-c2ccccc2Cl)cs1 [Compound 18, (E)-2-((2-(4-(2-chlorophenyl)thiazol-2-yl)hydrazono)methyl)phenol] | –
<0.34 | > 10000 nM | loss of activity | O=C(O)c1cccc(/C=N/Nc2nc(-c3ccccc3Cl)cs2)c1 [Compound 20, (E)-3-((2-(4-(2-chlorophenyl)thiazol-2-yl)hydrazono)methyl)benzoic acid] | –
<0.28 | > 10000 nM | loss of activity | O=C(O)c1ccc(/C=N/Nc2nc(-c3ccccc3Cl)cs2)cc1 [Compound 21, (E)-4-((2-(4-(2-chlorophenyl)thiazol-2-yl)hydrazono)methyl)benzoic acid] | –
1.02 | 3270 ± 67.8 nM | – | COC(=O)c1ccccc1/C=N/Nc1nc(-c2ccccc2Cl)cs1 [Compound 22, (E)-methyl 2-((2-(4-(2-chlorophenyl)thiazol-2-yl)hydrazono)methyl)benzoate] | fold decrease in potency compared with 19 (hDHODH (Met30-Arg396) [2]): 101 fold
0.75 | 1870 ± 30 nM | – | CCOC(=O)c1ccccc1/C=N/Nc1nc(-c2ccccc2Cl)cs1 [Compound 23, (E)-ethyl 2-((2-(4-(2-chlorophenyl)thiazol-2-yl)hydrazono)methyl)benzoate] | fold decrease in potency compared with 19 (hDHODH (Met30-Arg396) [2]): 58 fold
2.66 | 234 ± 6.8 nM | – | O=C(O)c1c(F)cccc1/C=N/Nc1nc(-c2ccccc2Cl)cs1 [Compound 24, (E)-2-((2-(4-(2-chlorophenyl)thiazol-2-yl)hydrazono)methyl)-6-fluorobenzoic acid] | fold decrease in potency compared with 19 (hDHODH (Met30-Arg396) [2]): 7 fold
<1.22 | > 10000 nM | sharp decrease in inhibitory activity | Nc1cccc(C(=O)O)c1/C=N/Nc1nc(-c2ccccc2Cl)cs1 [Compound 25, (E)-3-amino-2-((2-(4-(2-chlorophenyl)thiazol-2-yl)hydrazono)methyl)benzoic acid] | –
4.38 | 1175 ± 8.5 nM | sharp decrease in potency | NC(=O)c1cccc(-c2csc(N/N=C/c3ccccc3C(=O)O)n2)c1 [Compound 28, (E)-2-((2-(4-(3-carbamoylphenyl)thiazol-2-yl)hydrazono)methyl)benzoic acid] | –

Second part, the compound before the results:

SMILES | LLE (hDHODH (Met30-Arg396) [2]) | IC50 (hDHODH (Met30-Arg396) [2]) | inhibition of hDHODH (in words) (hDHODH (Met30-Arg396) [2]) | further results
O=Cc1ccccc1/C=N/Nc1nc(-c2ccccc2)cs1 [Compound 7] | 2.92 | 365 ± 0.6 nM | – | IC50 (hDHODH (Met30-Arg396) [1]): 365 nM
Oc1ccccc1/C=N/Nc1nc(-c2ccccc2)cs1 [Compound 8] | <0.17 | > 10000 nM | – | –
Oc1c(Cl)cc(Cl)cc1/C=N/Nc1nc(-c2ccccc2)cs1 [Compound 9] | <−1.58 | > 10000 nM | – | –
Oc1c(Cl)cc(Cl)cc1/C=N/Nc1nc(-c2ccc(Cl)cc2Cl)cs1 [Compound 10] | <−2.53 | > 10000 nM | – | –
C/C(=N\Nc1nc(-c2ccc(Br)cc2)cs1)c1ccccc1O [Compound 11] | <−0.81 | > 10000 nM | – | –
Brc1ccc(-c2csc(N/N=C/c3ccccc3)n2)cc1 [Compound 12] | <−0.42 | > 10000 nM | – | –
Brc1ccc(-c2csc(N/N=C/c3ccco3)n2)cc1 [Compound 13] | <0 | > 10000 nM | – | –
Cc1sc(N/N=C/c2cc([N+](=O)[O-])ccc2O)nc1-c1ccccc1 [Compound 14] | <−0.48 | > 10000 nM | – | –
Cc1sc(N/N=C/c2ccccc2O)nc1-c1ccccc1 [Compound 15, (E)-2-((2-(5-methyl-4-phenylthiazol-2-yl)hydrazono)methyl)phenol] | 0.48 | 2437 ± 22.9 nM | moderate inhibition | –
CC(C)c1ccc(-c2csc(N/N=C/c3ccccc3O)n2)cc1 [Compound 16, (E)-2-((2-(4-(4-isopropylphenyl)thiazol-2-yl)hydrazono)methyl)phenol] | <−1.23 | > 10000 nM | – | –
Oc1ccccc1/C=N/Nc1nc(-c2ccc(Cl)c(Cl)c2)cs1 [Compound 17, (E)-2-((2-(4-(3,4-dichlorophenyl)thiazol-2-yl)hydrazono)methyl)phenol] | <−1.03 | > 10000 nM | – | –
O=C(O)c1ccccc1/C=N/Nc1nc(-c2ccccc2Cl)cs1 [Compound 19, (E)-2-((2-(4-(2-chlorophenyl)thiazol-2-yl)hydrazono)methyl)benzoic acid] | 3.59 | 32 nM and 32.2 nM | IC50 values in the double-digit nanomolar range | half-life [3]: 581 ± 189 min; arthritis score ([4]; 5 mg/kg i.p. daily): around 5; arthritis score ([4]; 30 mg/kg i.p. daily): ~3; anti-arthritic effect (in words) ([4]; 5 and 30 mg/kg i.p. daily for 28 days): significant dose-dependent anti-arthritic effect; histological changes in joint tissues (H&E) ([4]; both dosages, compared to CIA rats): evidently alleviated; influence on body weight [4]: no obvious influence on increase in body weight; fold increase in potency compared to 18 (hDHODH (Met30-Arg396) [2]; hDHODH IC50 relative to hydroxy-substituted derivative 18): 43 fold; Cmax (in vivo): 5310 ± 1910 ng/mL
O=C(O)c1ccccc1/C=N/Nc1nc(-c2ccccc2)cs1 [Compound 26, (E)-2-((2-(4-phenylthiazol-2-yl)hydrazono)methyl)benzoic acid] | 3.12 | 183 ± 3.1 nM | slight decrease in activity | –
COc1cccc(-c2csc(N/N=C/c3ccccc3C(=O)O)n2)c1 [Compound 27, (E)-2-((2-(4-(3-methoxyphenyl)thiazol-2-yl)hydrazono)methyl)benzoic acid] | 3.52 | 175 ± 1.8 nM | – | –
Cc1ccc(-c2csc(N/N=C/c3ccccc3C(=O)O)n2)cc1 [Compound 29, (E)-2-((2-(4-(p-tolyl)thiazol-2-yl)hydrazono)methyl)benzoic acid] | 2.64 | 155 ± 6.8 nM | – | –
O=C(O)c1ccccc1/C=N/Nc1nc(-c2cc(Cl)ccc2Cl)cs1 [Compound 30, (E)-2-((2-(4-(2,5-dichlorophenyl)thiazol-2-yl)hydrazono)methyl)benzoic acid] | 2.88 | 43 nM and 43.1 nM | IC50 values in the double-digit nanomolar range | –
O=C(O)c1ccccc1/C=N/Nc1nc(-c2ccc3ccccc3c2)cs1 [Compound 31, (E)-2-((2-(4-(naphthalen-2-yl)thiazol-2-yl)hydrazono)methyl)benzoic acid] | 1.43 | 573 ± 21.6 nM | moderate inhibitory activity | –
O=C(O)c1ccccc1/C=N/Nc1nc(-c2ccc(-c3ccccc3)cc2)cs1 [Compound 32, (E)-2-((2-(4-([1,1′-biphenyl]-4-yl)thiazol-2-yl)hydrazono)methyl)benzoic acid] | <−0.04 | > 10000 nM | loss of activity | –
Cc1oncc1C(=O)Nc1ccc(C(F)(F)F)cc1 [Leflunomide, leflunomide] | – | – | – | half-life [5]: approximately two
CN(Cc1cnc2nc(N)nc(N)c2n1)c1ccc(C(=O)N[C@@H](CCC(=O)O)C(=O)O)cc1 [methotrexate, reference compound] | – | – | – | influence on body weight [4]: no obvious influence on increase in body weight
